According to patent US20240368123A1, “AROMATIC RING-CONTAINING BIOLOGICAL ANTAGONIST, AND PREPARATION METHOD THEREFOR AND USE THEREOF” (SHANGHAI HANSOH BIOMEDICAL CO., LTD., priority 2021, published 2024):

Molecular target: T1, AT1 receptors (Homo sapiens, UniProt P30556)
T1 construct: host or cells: HEK293
T1 sequence (P30556 1-359): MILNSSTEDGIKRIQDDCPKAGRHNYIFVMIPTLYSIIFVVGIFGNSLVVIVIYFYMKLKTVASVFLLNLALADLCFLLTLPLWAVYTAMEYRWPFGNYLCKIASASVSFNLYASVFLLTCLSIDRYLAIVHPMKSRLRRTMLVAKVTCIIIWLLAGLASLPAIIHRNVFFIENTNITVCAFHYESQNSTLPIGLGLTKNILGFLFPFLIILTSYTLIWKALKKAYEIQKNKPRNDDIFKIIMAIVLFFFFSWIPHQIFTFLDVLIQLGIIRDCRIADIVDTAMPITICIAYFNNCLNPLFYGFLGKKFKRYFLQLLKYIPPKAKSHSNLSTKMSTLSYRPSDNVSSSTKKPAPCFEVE
Assay: Effect on calcium current in cells stably expressing AT1 receptors (FLIPR, antagonist mode)
Format: cell-based
Conditions: HEK293-AT1 cells, Fluo-8 AM, FLIPR Tetra; read-out: IC50 values of compounds on calcium current in cells stably expressing AT1 receptors
Text: Test Example 1. Determination of the Effect of the Compounds of the Present Invention on Calcium Current in Cells Stably Expressing AT1 Receptors
Antagonistic effect of test compounds on HEK293-AT1 cell activity
• DMEM, high glucose (Gibco: 12100); • Fetal bovine serum (Biosera: FB-1058/500); • P/S (Biosera: XC-A4122); • 5× Matrigel (Corning: 354230); • HBSS (Sigma: H1387); • HEPES (Invitrogen: 15630080); • Fluo-8 AM (AAT Bioquest: 21080); • Probenecid (Sigma: P8761); • Pluronic F-127 (Sigma: P2443-250G); • Angiotensin III TFA (MCE: HY-113035A); • Irbesartan (MCE: HY—B0202); • 1000× Fluo-8 AM (2 mM): Fluo-8 AM was dissolved in DMSO, the mixture was shaken for 1-2 min, sub-packaged and stored at −20° C.; • Complete culture medium: DMEM+10% FBS+1×P/S; • Cell seeding medium: DMEM+10% FBS+1×PS; • Experimental buffer 1: 1×HBSS+20 mM HEPES+1 mM Probenecid+0.025% Pluronic F-127; • Experimental buffer 2: 1×HBSS+20 mM HEPES+0.075% Pluronic F-127; • 1× Matrigel: 5× Matrigel was diluted with DMEM; • Cell line: HDB HEK293-AT1.
• 1) HEK293-AT1 cell line was cultured in complete culture medium at 37° C., 5% CO2 to 70%-90% confluence. • 2) the 384-well cell plate was coated with 1× Matrigel with 5 μL/well at room temperature for 10 to 30 min. • 3) the cells were digested and resuspended in cell seeding medium, inoculation was performed at 8,000 cells/well/20 μL in a 384-well cell culture plate, and the cells were cultured at 37° C., 5% CO2 for 24 h. • 4) the cell culture plate was taken out of the CO2 incubator and equilibrated at room temperature for 10 min. • 5) 1000× Fluo-8 AM was taken and diluted to 1× Fluo-8 AM with experimental buffer 1 that has been equilibrated to room temperature, with a concentration of 2 μM. • 6) the culture medium was removed from the cell culture plate, 20 μL of 1× Fluo-8 AM was added to each well, the mixture was centrifuged at 300 rpm for 60 seconds at room temperature, and incubated at room temperature in the dark for 1 h. • 7) positive control compound and test compound working solution (3×) were formulated: • (1) instrument Bravo was used to dilute the compound to 11 concentration points on the 384-well Echo compound plate (LABCYTE: LP-0200); • (2) instrument ECHO was used to transfer 90 nL of compound per well (compound storage concentration, such as the highest concentration point 10 mM) to the 384-well compound plate (PE: 6008590); • (3) Multidrop Combi was used to add 30 μL of experimental buffer 2 to the 384-well compound plate (PE: 6008590), the positive control compound and test compound were diluted to 30 μM (3×), and placed at room temperature until use. • 8) FLIPR Tetra was used to add 10 μL of diluted 3× compound into the experimental well of the corresponding 384-well cell plate, the compound and cells were incubated for 10 min at room temperature, then 10 μL of diluted 4× agonist was added, and the data was read and collected at the same time.
FLIPR Tetra was used to read and collect the fluorescence signal value (RFU). The maximum RFU value was used to calculate the percent activation data based on the readings of the Low control (DMSO control) and High control (100 nM positive compound) experimental groups {% activation rate=(RFUsample−RFUlow control)/(RFUhigh control−RFUlow control)×100}. The concentration of the test compound was 11 concentrations after diluting the reaction system 3 times, ranging from 10 uM to 0.17 nM.

How did the IC50 turn out when `CCCCC1=NC2(CCCCC2)C(=O)N1Cc1ccc(-c2ccccc2S(=O)(=O)Nc2noc(C)c2Cl)c(COCC)c1` [Example 68, 4′-((2-2-4-4-oxo-1,3-diazaspiro[4.5]dec-1-en-3-yl)methyl)-N-(4-chloro-5-methylisoxazol-3-yl)-2′-(ethoxymethyl)-[1,1′-biphenyl]-2-sulfonamide] was run?
Its IC50 is 8.8 nM.

How did the IC50 turn out when `CCCCC1=NC2(CC3CC3C2)C(=O)N1Cc1ccc(-c2ccccc2S(=O)(=O)Nc2noc(C)c2Cl)c(COCC)c1` (stereo not drawn) [Example 65, 4′-((2′-butyl-5′-oxaspiro[bicyclo[3.1.0]hexane-3,4′-imidazole]-1′(5′H)-yl)methyl)-N-(4-chloro-5-methylisoxazol-3-yl)-2′-(ethoxymethyl)-[1,1′-biphenyl]-2-sulfonamide] was run?
Its IC50 is 4.4 nM.

How did the IC50 turn out when `CCCCC1=NC2(CCCC2)C(=O)N1Cc1ccc(-c2ccccc2S(=O)(=O)Nc2noc(C)c2Br)c(COCC)c1` [Example 46, 2-[4-[(2-butyl-4-oxo-1,3-diazaspiro[4.4]non-1-en-3-yl)methyl]-2-(ethoxymethyl)phenyl]-N-(4-bromo-5-methyl-isoxazol-3-yl)benzsulfamide] was run?
The IC50 was 3.9 nM.

For `CCCCC1=NC2(CCCC2)C(=O)N1Cc1ccc(-c2ccccc2S(=O)(=O)Nc2noc(C)c2Cl)c(COCC(F)(F)F)c1` [Example 86], which IC50 is on record?
The IC50 was 2.2 nM.

How did the IC50 turn out when `[2H]C([2H])(OCC)c1cc(CN2C(=O)C3(CCCC3)N=C2CCCC)ccc1-c1ccccc1S(=O)(=O)Nc1noc(C)c1Cl` [Example 49, 4′-((2-butyl-4-oxo-1,3-diazospiro[4.4]non-1-en-3-yl)methyl)-N-(4-chloro-5-methylisoxazol-3-yl)-2′-(ethoxydeuteriummethyl)-[1,1′-biphenyl]-2-sulfonamide] was run?
Its IC50 is 7.2 nM.

`CCCCC1=NC2(CC3CC3C2)C(=O)N1Cc1ccc(-c2ccccc2S(=O)(=O)Nc2noc(C)c2C)c(COCC)c1` (stereo not drawn) [Example 87, 4′-((2′-butyl-5′-oxaspiro[bicyclo[3.1.0]hexane-3,4′-imidazole]-1′(5′H)-yl)methyl)-N-(4,5-dimethylisoxazol-3-yl)-2′-(ethoxymethyl)-[1,1′-biphenyl]-2-sulfonamide] was tested. Which IC50 did it give?
Its IC50 is 9.6 nM.
